The results in this text go back to PMC5881017, “Mechanisms of BK Channel Activation by Docosahexaenoic Acid in Rat Coronary Arterial Smooth Muscle Cells” (Frontiers in Pharmacology, 2018).

The target of the test is T1, large-conductance calcium-activated potassium (BK) channel (Rattus norvegicus, UniProt Q62976).
T1 construct: gene Kcnma1; native BK channels in freshly isolated rat coronary arterial smooth muscle cells (inside-out patches)
Briefly: inside-out single-channel patch clamp (open probability at +[…] mV). In kind it is cell-based. (In general: Patch clamp records ionic current or voltage across a cell membrane.)

T1 sequence (Q62976 whole entry): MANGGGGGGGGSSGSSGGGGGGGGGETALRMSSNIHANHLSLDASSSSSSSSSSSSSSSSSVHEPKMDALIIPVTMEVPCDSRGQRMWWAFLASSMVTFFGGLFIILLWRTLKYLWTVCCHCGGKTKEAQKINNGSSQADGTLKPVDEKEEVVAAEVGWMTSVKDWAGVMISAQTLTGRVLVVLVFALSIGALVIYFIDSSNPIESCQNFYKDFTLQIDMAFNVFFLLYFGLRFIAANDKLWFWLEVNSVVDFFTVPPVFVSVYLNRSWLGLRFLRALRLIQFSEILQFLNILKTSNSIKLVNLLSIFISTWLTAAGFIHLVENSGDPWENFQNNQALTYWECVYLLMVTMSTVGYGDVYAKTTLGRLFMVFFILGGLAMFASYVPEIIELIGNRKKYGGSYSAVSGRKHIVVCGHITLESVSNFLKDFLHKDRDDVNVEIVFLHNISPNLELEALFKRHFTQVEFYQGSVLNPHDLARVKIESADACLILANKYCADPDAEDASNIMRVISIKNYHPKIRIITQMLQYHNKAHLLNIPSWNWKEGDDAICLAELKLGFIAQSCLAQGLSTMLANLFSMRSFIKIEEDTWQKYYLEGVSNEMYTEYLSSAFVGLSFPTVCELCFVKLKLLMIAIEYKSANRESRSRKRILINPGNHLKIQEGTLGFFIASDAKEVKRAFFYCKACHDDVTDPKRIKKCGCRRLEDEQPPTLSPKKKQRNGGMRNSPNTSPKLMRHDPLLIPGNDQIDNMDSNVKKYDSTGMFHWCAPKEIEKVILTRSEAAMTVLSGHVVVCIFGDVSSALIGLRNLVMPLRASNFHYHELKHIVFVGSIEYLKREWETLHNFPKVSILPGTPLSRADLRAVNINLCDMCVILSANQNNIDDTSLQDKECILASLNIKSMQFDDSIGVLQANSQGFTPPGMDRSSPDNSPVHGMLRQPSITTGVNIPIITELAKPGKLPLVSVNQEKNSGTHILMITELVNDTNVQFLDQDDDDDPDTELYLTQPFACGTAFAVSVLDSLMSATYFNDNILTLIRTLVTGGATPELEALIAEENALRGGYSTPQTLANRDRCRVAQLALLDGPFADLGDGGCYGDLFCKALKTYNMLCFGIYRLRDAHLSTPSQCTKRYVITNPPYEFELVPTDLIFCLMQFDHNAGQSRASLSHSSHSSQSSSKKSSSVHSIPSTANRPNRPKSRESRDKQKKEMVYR

Take `CC/C=C\C/C=C\C/C=C\C/C=C\C/C=C\C/C=C\CCC(=O)O` [Docosahexaenoic acid]: the EC50 (in general, the midpoint of the concentration-response curve) came out at 3.37 ± 0.1 µM.
